# Tests used:
# LINE-1 [1] = test: Line-1 subfamily analysis and matches to HL1gR4 (HL1gR4 PCR products); design: species or system human; conditions: for Reads: Total Reads 35520
# LINE-1 [2] = system: LINE-1
# Description: (§2) Single cells were FACS-sorted into flat bottom 96-well plates containing 100 μL of DMEM with 10% FBS and 1% Penicillin/Streptomycin per well. Sorted plates were incubated for ˜14 days until well-characterized colonies were visible, with periodic media changes performed as necessary. To extract gDNA, the cells were first detached using 30 μL TRYPLE™ Express (Thermofisher Cat. #12604021) and neutralized with 30 μL growth media. Then, 4 μL of the resulting cell suspension was transferred to 10 μL of QE. Genomic DNA was extracted according to manufacturer's protocol, as described previously.
# (§3) Library preparation was conducted as previously described^5. Briefly, genomic DNA was amplified using locus-specific primers attached to part of the Illumina adapter sequence. A second round of PCR included the index sequence and the full Illumina adapter. All PCRs were carried out using KAPA HiFi HotStart ReadyMix (KAPA Biosystems KK2602) according to the manufacturer's thermocycler conditions. Libraries were purified using gel extraction (Qiagen Cat. #28706), quantified using Nanodrop and pooled together for deep sequencing on the MiSeq using 150 paired end (PE) reads.
# (§4) All paired end reads were aligned to the reference genome using bowtie2, and the resulting alignment files were converted to bam, sorted, indexed, and variant called using samtools^7. All SNV data within a 30 bp window from the 5′ start of the gRNA proceeding through the PAM and extending an additional seven bp's (for a 20 bp gRNA) are reported to analyze the editing window and purity of editing.
# LINE-1 [3] = test: Single cell clonal isolation and sequence verification of live edited HEK 293T clones; conditions: for Mean target deamination % / Number of cells with targeted deamination / Percent of cells with targeted deamination: HEK 293T, Day 14; for non-specific nucleotide conversions in gRNA and PAM: most highly edited clone versus parental 293T control
# Description: as §2, §3, §4
# LINE-1 [4] = test: FACS single cell direct NGS of targeted deamination, HEK 293T; format: cell-based, human; conditions: for Mean target deamination % / Percent of cells with targeted deamination / Number of cells with targeted deamination: HEK 293T; for Mean target deamination % / Percent of cells with targeted deamination: Day 2; for Number of cells with targeted deamination: Day 2, 96 analyzed cells
# Description: To quantify early genetic editing in cells transfected with Cas9/BE and gRNA expression plasmids, single cells were sorted and prepared as follows. Two days post-transfection, single cells were FACS-sorted into 96-well PCR plates containing 10 μL of QUICKEXTRACT™ DNA Extraction Solution (Epicentre Cat. #QE09050) per well and genomic DNA (gDNA) was extracted using the manufacturer's protocol. Briefly, the sorted plates were sealed, vortexed and heated at 65° C. for 6 minutes then 98° C. for 2 minutes. The NGS library was prepared as described later below.
# (§1) Library preparation was conducted as previously described^5.
# LINE-1 [5] = test: NGS base editing deamination analysis, bulk transfected HEK 293T; format: cell-based, human; conditions: for gRNAs with above control levels of base editing in genomic DNA: HEK 293T, LINE-1 gRNAs
# Description: as §1
# [6] = HL1gR6, 3 days after transfection
# [7] = 293T, HL1gR4, two days post-transfection
# Description for single-locus targets: HEK 293T cells were obtained from ATCC with verification of cell line identification and mycoplasma negative results. They were expanded using 10% fetal bovine serum (FBS) in high-glucose DMEM with glutamax passaging at a typical rate of 1:100 and maintained at 37° C. with 5% CO2. Transfection was conducted using Lipofectamine 2000 (ThermoFisher Catalogue #11668019) using the protocol recommended by the manufacturer with slight modifications outlined below. 24 hours before transfection ˜1.0×10^5 cells were seeded per well in a 12-well plate along with 1 mL of media. A total of 2 μg of DNA and 2 μL of Lipofectamine 2000 were used per well. For Cas9 plasmids, the DNA content per well was 1 μg of pCas9_GFP mixed with 1 μg of gRNA-expressing plasmid. For BE plasmids, 1.5 μg of BE was mixed with 0.5 μg of gRNA plasmid. In the dBE vs nBE comparison used to generate FIGS. 4A-4C, Pifithrin-α (10 ng/μ1) from Sigma-Aldrich P4359 (source #063M4741V, Batch #0000003019) was added to the media 30 minutes before transfection and maintained in the first day media change.
# Raw Illumina sequencing data was demultiplexed using bcl2fastq. All paired end reads were aligned to the reference genome using bowtie2^49 and the resulting alignment files were parsed for their cigar string to determine the position and size of all indels within each read using a custom perl script (https://github.com/CRISPRengineer/mutation_indel). All indels that were sequenced in both the forward and reverse reads were summed across all reads and reported for each sample along with the total number of reads. Indels within a 30 bp window from the 5′ start of the gRNA proceeding through the PAM and extending an additional seven bp's (for a 20 bp gRNA) were counted and summed for each sample.
# as §4
substance,measurement,setting,value
"HL1gR4: SpCas9 gRNA targeting LINE-1 ORF2, SEQ ID NO: 54 (guide ATTCTACCAGAGGTACAAGG; chemistry not given here)",Percentage of reads,LINE-1 [1]; # of Mismatches 0,64.1%
same,Reads,LINE-1 [1]; # of Mismatches 0,22780
same,Percentage of reads,LINE-1 [1]; # of Mismatches 1,18.4%
same,Reads,LINE-1 [1]; # of Mismatches 1,6546
same,Percentage of reads,LINE-1 [1]; # of Mismatches 2,3.2%
same,Reads,LINE-1 [1]; # of Mismatches 2,1131
same,Percentage of reads,LINE-1 [1]; # of Mismatches 3,0.4%
same,Reads,LINE-1 [1]; # of Mismatches 3,148
same,Percentage of reads,LINE-1 [1]; # of Mismatches 4,0.2%
same,Reads,LINE-1 [1]; # of Mismatches 4,63
same,Percentage of reads,LINE-1 [1]; # of Mismatches 5,0.0%
same,Reads,LINE-1 [1]; # of Mismatches 5,2
same,Percentage of reads,LINE-1 [1]; # of Mismatches 6,0.1%
same,Reads,LINE-1 [1]; # of Mismatches 6,26
same,Percentage of reads,LINE-1 [1]; # of Mismatches 7,0.0%
same,Reads,LINE-1 [1]; # of Mismatches 7,1
same,Percentage of reads,LINE-1 [1]; # of Mismatches 8,0.0%
same,Reads,LINE-1 [1]; # of Mismatches 8,1
same,Percentage of reads,LINE-1 [1]; # of Mismatches 9,0.0%
same,Reads,LINE-1 [1]; # of Mismatches 9,1
same,Percentage of reads,LINE-1 [1]; # of Mismatches >9,13%
same,Reads,LINE-1 [1]; # of Mismatches >9,4600
"dCBE4-gam: nick-less dCas9 cytidine base editor with mu-gam (H840A), SEQ ID NO: 108",Number of analyzed cells,LINE-1 [2],29
same,indel activity,single-locus targets,reduced to background levels
same,total number of chromosomal aberrations of top edited clones,HEK 293T,not significantly different than control groups
same,Mean target deamination %,LINE-1 [3],3.05%
same,Number of cells with targeted deamination,LINE-1 [3],20
same,Percent of cells with targeted deamination,LINE-1 [3],69%
same,increase in mean editing frequency among surviving live clones compared to nicking counterpart,LINE-1 [3]; day 14,2.38 fold
same,non-specific nucleotide conversions in gRNA and PAM,LINE-1 [3],some non-specific nucleotide conversions
same,mean target nucleotide deamination frequency compared to nBE equivalents,"LINE-1 [4]; 293T, HL1gR4, 2 days after transfection",significant reductions
same,Mean target deamination %,LINE-1 [4],4.43%
same,Percent of cells with targeted deamination,LINE-1 [4],41.7%
same,Number of cells with targeted deamination,LINE-1 [4],40
"dCBE4: nick-less dCas9 cytidine base editor (H840A), SEQ ID NO: 107",indel activity,single-locus targets,reduced to background levels
same,improvement in editing efficiency over CBE2,"single-locus targets; 293T cells, day five",2.38 fold
same,reduction in efficiency compared to nicking counterparts,"single-locus targets; 293T cells, day five",34.7%
"nABE: ecTadA(wt)-linker(32aa)-ecTadA*(7.10)-linker(32aa)-nCas9-NLS, SEQ ID NO: 15, Addgene #102919",gRNAs with above control levels of base editing in genomic DNA,LINE-1 [5],4 out of 5
same,editing efficiency,LINE-1 [5]; [6],4.94%
same,loci edited,LINE-1 [5]; [6],~1290 loci
same,Number of analyzed cells,LINE-1 [2],16
same,total number of chromosomal aberrations of top edited clones,HEK 293T,not significantly different than control groups
same,Mean target deamination %,LINE-1 [3],0.88%
same,Number of cells with targeted deamination,LINE-1 [3],4
same,Percent of cells with targeted deamination,LINE-1 [3],25%
same,non-specific nucleotide conversions in gRNA and PAM,LINE-1 [3],not
same,Mean target deamination %,LINE-1 [4],5.32%
same,Percent of cells with targeted deamination,LINE-1 [4],60.4%
same,Number of cells with targeted deamination,LINE-1 [4],58
same,decrease in editing efficiency at the early timepoint,LINE-1 [4]; nABE 5.32% versus dABE 1.45%,3.67 fold
"nCBE3: rAPOBEC1-XTEN-nCas9-UGI-NLS, SEQ ID NO: 10, Addgene #73021 [reference compound]",fate of edited cell lines before day 30,"LINE-1 [3]; 293T, HL1gR4",died
same,mean deamination frequency compared with nCBE4-gam,LINE-1 [4]; [7],significantly higher
"nCBE4-gam: Cas9 nickase-cytidine deaminase-gam, SEQ ID NO: 12, Addgene #100806 [reference compound]",gRNAs with above control levels of base editing in genomic DNA,LINE-1 [5],4 out of 5
same,Number of analyzed cells,LINE-1 [2],12
same,total number of chromosomal aberrations of top edited clones,HEK 293T,not significantly different than control groups
same,deamination frequencies of surviving cell lines,"LINE-1 [3]; 293T, HL1gR4, day 30",≤ 1.37 % of LINE-1
same,estimated sites edited in surviving cell lines,"LINE-1 [3]; 293T, HL1gR4, day 30",~356 sites
same,Mean target deamination %,LINE-1 [3],1.28%
same,Number of cells with targeted deamination,LINE-1 [3],4
same,Percent of cells with targeted deamination,LINE-1 [3],33%
same,non-specific nucleotide conversions in gRNA and PAM,LINE-1 [3],some non-specific nucleotide conversions
same,deamination in the most highly edited single cell,LINE-1 [4]; [7],up to 54.9%
same,estimated loci edited in the most highly edited single cell,LINE-1 [4]; [7],"14,300 loci"
same,Mean target deamination %,LINE-1 [4],6.08%
same,Percent of cells with targeted deamination,LINE-1 [4],65.6%
same,Number of cells with targeted deamination,LINE-1 [4],63
same,C→T deamination in cells after a second round of editing of cloneK,LINE-1 [4]; day 2,up to 36.26%
